This assay addresses human A2A receptor (Homo sapiens (Human), UniProt P29274). In words: competition binding assay using Scintillation Proximity technology. The settings on record: membranes from CHO-K1 cells expressing the human A2a receptor; 2.0 nM tritiated compound; Cheng-Prusoff. The method in brief:
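Membranes (1.0 μg) from CHO-K1 cells expressing human A2A were treated with adenosine deaminase, then incubated 1 h at room temperature with compound (3000–0.15 nM) and 2.0 nM tritiated SCH-type ligand on WGA SPA beads in PBS plus 10 mM MgCl2. Nonspecific binding was defined with 1 μM CGS 15943. Ki was derived from EC50 via Cheng-Prusoff.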

In patent US11046714B2, “2,2-difluorodioxolo A2A receptor antagonists” (Merck Sharp & Dohme Corp., priority 2013, dated 2021) one finds Ki data, which are given here for 29 molecules.

The term Ki denotes the equilibrium dissociation constant of an inhibitor or competing ligand from its target. Read a high Ki as a looser hold on the target.

Chain of human A2A receptor (P29274 whole entry): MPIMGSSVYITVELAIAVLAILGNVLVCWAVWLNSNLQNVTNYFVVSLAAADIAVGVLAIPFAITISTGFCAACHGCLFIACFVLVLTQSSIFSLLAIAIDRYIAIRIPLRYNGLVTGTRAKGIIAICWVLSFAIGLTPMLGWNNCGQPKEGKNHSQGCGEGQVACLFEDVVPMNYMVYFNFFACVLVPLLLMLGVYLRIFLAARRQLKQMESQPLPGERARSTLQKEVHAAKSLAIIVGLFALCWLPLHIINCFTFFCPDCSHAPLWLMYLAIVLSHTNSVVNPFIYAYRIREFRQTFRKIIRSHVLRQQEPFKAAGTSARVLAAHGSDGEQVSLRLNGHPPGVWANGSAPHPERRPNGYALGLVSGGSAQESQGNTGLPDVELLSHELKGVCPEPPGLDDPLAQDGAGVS

`CC(c1nc2c3ccc4c(c3nc(N)n2n1)OC(F)(F)O4)N1C[C@H](F)[C@@H](F)C1` (single isomer, unassigned) [Example 134, (R or S)-8-{1-[(3S,4S)-3,4-difluoropyrrolidin-1-yl]ethyl}-2,2-difluoro[1,3]dioxolo[4,5-h][1,2,4]triazolo[1,5-c]quinazolin-5-amine]: the affinity corresponds to a Ki of 24 nM. The molecule `Nc1nc2c3c(ccc2c2nc(CCN4CCCC(F)(F)C4)nn12)OC(F)(F)O3` [Example 29, 8-[2-(3,3-difluoropiperidin-1-yl)ethyl]-2,2-difluoro[1,3] dioxolo[4,5-h][1,2,4]triazolo [1,5-c]quinazolin-5-amine] gave a Ki of 1.6 nM. In turn, `CC(c1nc2c3ccc4c(c3nc(N)n2n1)OC(F)(F)O4)N1CC(F)(F)C1` (single isomer, unassigned) [Example 131, (R or S)-8-[1-(3,3-difluoroazetidin-1-yl)ethyl]-2,2-difluoro[1,3]dioxolo [4,5-h][1,2,4]triazolo[1,5-c]quinazolin-5-amine] gave an inhibition constant Ki of 130 nM. Molecule `Nc1nc2c3c(ccc2c2nc([C@H]4CC[C@@H](N5CCCC(F)(F)C5)C4)nn12)OC(F)(F)O3` [Example 161, 8-[(1S,3R)-3-(3,3-difluoropiperidin-1-yl)cyclopentyl]-2,2-difluoro[1,3]dioxolo[4,5-h][1,2,4]triazolo[1,5-c]quinazolin-5-amine] displayed an inhibition constant (Ki) of 32 nM. For the molecule `COCCOc1ccc(N2CCN(Cc3nc4c5ccc6c(c5nc(N)n4n3)OC(F)(F)O6)C3(CC3)C2)cc1` [Example 105, 2,2-difluoro-8-({7-[4-(2-methoxyethoxy)phenyl]-4,7-diazaspiro[2.5]oct-4-yl}methyl) [1,3]dioxolo[4,5-h][1,2,4]triazolo [1,5-c]quinazolin-5-amine], the Ki was found to be 3.7 nM. With `C[C@H]1COCCN1CCc1nc2c3ccc4c(c3nc(N)n2n1)OC(F)(F)O4` [Example 43, 2,2-difluoro-8-{2-[(3S)-3-methylmorpholin-4-yl]ethyl}[1,3]dioxolo[4,5-h][1,2,4]triazolo[1,5-c]quinazolin-5-amine], the affinity corresponds to a Ki of 7.8 nM. For the molecule `Nc1nc2c3c(ccc2c2nc(CCn4cccn4)nn12)OC(F)(F)O3` [Example 99, 8-(2-(1H-pyrazol-1-yl)ethyl)-2,2-difluoro-[1,3]dioxolo[4,5-h][1,2,4]triazolo[1,5-c]quinazolin-5-amine], the Ki was 2.7 nM. The same measure for `C[C@H](Cc1nc2c3ccc4c(c3nc(N)n2n1)OC(F)(F)O4)N1CCCC(C)(F)C1` (single isomer, unassigned) [Example 85, 2,2-difluoro-8-{(2R)-2-[(3R or 3S)-3-fluoro-3-methylpiperidin-1-yl]propyl}[1,3]dioxolo[4,5-h][1,2,4]triazolo[1,5-c]quinazolin-5-amine]: 12 nM; for `Nc1nc2c3c(ccc2c2nc(CCNC4CC5(CNC5)C4)nn12)OC(F)(F)O3` [Example 57, 8-[2-(2-azaspiro[3.3]hept-6-ylamino)ethyl]-2,2-difluoro [1,3]dioxolo[4,5-h][1,2,4] triazolo[1,5-c]quinazolin-5-amine]: 90 nM; for `Nc1nc2c3c(ccc2c2nc(CCN4CC5CC4C(F)(F)C5)nn12)OC(F)(F)O3` (single isomer, unassigned) [Example 67, (R or S)-8-[2-(6,6-difluoro-2-azabicyclo[2.2.1]hept-2-yl)ethyl]-2,2-difluoro[1,3]dioxolo[4,5-h][1,2,4] triazolo[1,5-c]quinazolin-5-amine]: 3.5 nM.

In the case of `C[C@@H]1CN(CCc2nc3c4ccc5c(c4nc(N)n3n2)OC(F)(F)O5)C[C@H](C)O1` [Example 44, 8-{2-[(2R,6S)-2,6-dimethylmorpholin-4-yl]ethyl}-2,2-difluoro[1,3]dioxolo[4,5-h][1,2,4]triazolo[1,5-c]quinazolin-5-amine], affinity was put at a Ki of 45 nM. On to `CC1(C)CCCN(CCc2nc3c4ccc5c(c4nc(N)n3n2)OC(F)(F)O5)C1` [Example 39, 8-[2-(3,3-dimethylpiperidin-1-yl)ethyl]-2,2-difluoro[1,3] dioxolo[4,5-h][1,2,4]triazolo [1,5-c]quinazolin-5-amine], for which affinity was put at a Ki of 67 nM. Turning to `Nc1nc2c3c(ccc2c2nc(C[C@@H](N)C4CC4)nn12)OC(F)(F)O3` [Example 159, 8-[(2R)-2-amino-2-cyclopropylethyl]-2,2-difluoro[1,3]dioxolo[4,5-h][1,2,4]triazolo[1,5-c]quinazolin-5-amine], affinity was put at a Ki of 180 nM. Molecule `CC(c1nc2c3ccc4c(c3nc(N)n2n1)OC(F)(F)O4)N1CC(F)(F)C1` (single isomer, unassigned) [Example 132, (R or S)-8-[1-(3,3-difluoroazetidin-1-yl)ethyl]-2,2-difluoro[1,3]dioxolo [4,5-h][1,2,4]triazolo[1,5-c]quinazolin-5-amine] returned a Ki of 56 nM. As to `Nc1nc2c3c(ccc2c2nc(CCN4CC5CC4C(F)(F)C5)nn12)OC(F)(F)O3` (single isomer, unassigned) [Example 66, (R or S)-8-[2-(6,6-difluoro-2-azabicyclo[2.2.1]hept-2-yl)ethyl]-2,2-difluoro[1,3]dioxolo[4,5-h][1,2,4] triazolo[1,5-c]quinazolin-5-amine], affinity was put at a Ki of 3 nM. Next, `C[C@@H]1CN(CCc2nc3c4ccc5c(c4nc(N)n3n2)OC(F)(F)O5)CCO1` [Example 42, 2,2-difluoro-8-{2-[(2R)-2-methylmorpholin-4-yl]ethyl}[1,3]dioxolo[4,5-h][1,2,4]triazolo[1,5-c]quinazolin-5-amine]: 11 nM; `CC(Cc1nc2c3ccc4c(c3nc(N)n2n1)OC(F)(F)O4)N1CCCC(F)(F)C1` (single isomer, unassigned) [Example 95, (R or S)-8-[2-(3,3-difluoropiperidin-1-yl)propyl]-2,2-difluoro[1,3] dioxolo[4,5-h][1,2,4]triazolo[1,5-c] quinazolin-5-amine]: 4.3 nM; `Nc1nc2c3c(ccc2c2nc(CN4CC(F)(F)C4)nn12)OC(F)(F)O3` [Example 109, 8-((3,3-difluoroazetidin-1-yl)methyl)-2,2-difluoro-[1,3]dioxolo[4,5-h][1,2,4]triazolo[1,5-c]quinazolin-5-amine]: 5.9 nM. Next, `C[C@@H]1CC(F)(F)CCN1CCc1nc2c3ccc4c(c3nc(N)n2n1)OC(F)(F)O4` [Example 31, 8-{2-[(2R)-4,4-difluoro-2-methylpiperidin-1-yl]ethyl}-2,2-difluoro[1,3]dioxolo[4,5-h][1,2,4]triazolo[1,5-c]quinazolin-5-amine]: 2.2 nM; `Nc1nc2c3c(ccc2c2nc(C4CCCN(c5cccc(F)c5)C4)nn12)OC(F)(F)O3` (single isomer, unassigned) [Example 143, (R or S)-2,2-difluoro-8-[1-(3-fluorophenyl)piperidin-3-yl][1,3]dioxolo[4,5-h][1,2,4]triazolo[1,5-c]quinazolin-5-amine]: 59 nM; `C[C@H](Cc1nc2c3ccc4c(c3nc(N)n2n1)OC(F)(F)O4)N1CCc2nc(C3CC3)oc2C1` [Example 81, 8-[(2R)-2-(2-cyclopropyl-6,7-dihydro [1,3]oxazolo[5,4-c]pyridin-5(4H)-yl)propyl]-2,2-difluoro[1,3] dioxolo[4,5-h][1,2,4]triazolo[1,5-c]quinazolin-5-amine]: 2.4 nM.

The molecule `CC1(F)CN(CCc2nc3c4ccc5c(c4nc(N)n3n2)OC(F)(F)O5)C1` [Example 16, 2,2-difluoro-8-[2-(3-fluoro-3-methylazetidin-1-yl)ethyl] [1,3]dioxolo[4,5-h][1,2,4] triazolo[1,5-c]quinazolin-5-amine] came in with a Ki of 3.2 nM.

Consider `Nc1nc2c3c(ccc2c2nc(CCN4Cc5ccc(F)cc5C4)nn12)OC(F)(F)O3` [Example 8, 2,2-difluoro-8-[2-(5-fluoro-1,3-dihydro-2H-isoindol-2-yl)ethyl][1,3]dioxolo[4,5-h][1,2,4]triazolo[1,5-c]quinazolin-5-amine], for which the Ki was 2.1 nM. `Nc1nc2c3c(ccc2c2nc(CCN4CC5COCC(C4)C5(F)F)nn12)OC(F)(F)O3` [Example 32, 8-[2-(9,9-difluoro-3-oxa-7-azabicyclo[3.3.1]non-7-yl)ethyl]-2,2-difluoro[1,3]dioxolo [4,5-h][1,2,4]triazolo[1,5-c]quinazolin-5-amine]: the Ki is 40 nM. `CC1N(CCc2nc3c4ccc5c(c4nc(N)n3n2)OC(F)(F)O5)CCCC1(F)F` (single isomer, unassigned) [Example 69, (R or S)-8-[2-(3,3-difluoro-2-methylpiperidin-1-yl)ethyl]-2,2-difluoro[1,3]dioxolo[4,5-h][1,2,4] triazolo[1,5-c]quinazolin-5-amine]: the affinity corresponds to a Ki of 1.8 nM. `C[C@@H]1CN(c2ccc(F)cc2)CCN1Cc1nc2c3ccc4c(c3nc(N)n2n1)OC(F)(F)O4` [Example 106, 2,2-difluoro-8-{[(2R)-4-(4-fluorophenyl)-2-methylpiperazin-1-yl]methyl}[1,3]dioxolo[4,5-h][1,2,4] triazolo[1,5-c]quinazolin-5-amine] had a Ki of 2.1 nM. The molecule `Nc1nc2c3c(ccc2c2nc(CN4CCC(F)(F)C4)nn12)OC(F)(F)O3` [Example 116, 8-[(3,3-difluoropyrrolidin-1-yl)methyl]-2,2-difluoro[1,3]dioxolo[4,5-h][1,2,4] triazolo[1,5-c]quinazolin-5-amine] yielded an inhibition constant Ki of 1.8 nM. Next, `Nc1nc2c3c(ccc2c2nc(CNCc4ccc(C(F)(F)F)cc4)nn12)OC(F)(F)O3` [Example 124, 2,2-difluoro-8-({[4-(trifluoromethyl)benzyl]amino}methyl)[1,3]dioxolo [4,5-h][1,2,4]triazolo[1,5-c]quinazolin-5-amine]: 1.6 nM; `C[C@@H](Cc1nc2c3ccc4c(c3nc(N)n2n1)OC(F)(F)O4)N1CCCC(C)(F)C1` (single isomer, unassigned) [Example 89, 2,2-difluoro-8-{(2S)-2-[(3R or 3S)-3-fluoro-3-methylpiperidin-1-yl]propyl}[1,3] dioxolo[4,5-h] [1,2,4]triazolo[1,5-c]quinazolin-5-amine]: 6.1 nM.
